Several values for one entry are separate records, joined by “and”; a condition that tells them apart may be missing. Equal values may be shown once. Where no end group is shown, it is not given here.
What was measured:
[1] = tested on: peripheral blood mononuclear cells derived from HLA-A*02:01-positive healthy individuals; experiment: CTL inducibility using human peripheral blood mononuclear cells, IFNγ ELISPOT; format: cell-based; details: peptide 20 μg/mL, IL-2 100 U/mL, about 2 weeks, FIGS. 39-43
Description: (§1) Subsequently, approximately 1×10^5 cells were plated in each well of a 96-well U bottom plate, and cultured at 37° C. under 5% CO2. At this time, human IL-2 and peptide were added at 100 U/mL and 20 μg/mL, respectively. The medium was exchanged every 3 or 4 days and an IFNγ ELISPOT assay was carried out after about 2 weeks. On the day before the assay, ELISPOT plates were treated with anti-IFNγ antibody, and on the day of assay, they were blocked with RPMI1640 medium containing 10% fetal calf serum at room temperature for about 2 hours. The human peripheral blood mononuclear cells in the culture were washed with an AIM-V medium containing 10% human-derived serum and plated in each well of the blocked ELISPOT plate. After culturing at 37° C. under 5% CO2 for 16 to 18 hours, the supernatant was removed and the ELISPOT plates were subjected to color development according to the attached protocol. The number of colored spots was measured with an ELISPOT analyzer manufactured by Cellular Technology Limited. […] In addition, black bars indicate the number of spots detected under peptide stimulation conditions, and white bars indicate the number of spots (controls) detected under no peptide pulse conditions.

[2] = tested on: peripheral blood mononuclear cells derived from HLA-A*24:02-positive healthy individuals; experiment: as above; format: cell-based; details: peptide 20 μg/mL, IL-2 100 U/mL, about 2 weeks, FIGS. 44, 45
Description: as §1

HLA-A*24:02 = HLA-A*24:02 (Homo sapiens, UniProt P04439, D101N/D140Y/D185E/E176V/E190D/F33S/G103R/G107R/I119L/I121M/I306V/K335N/L105A/L180Q/L300P/N151K/N90K/Q86E/Q94H/R106L/R138H/R89G/T104I/T345S/V100E/W191G/Y123F); format: binding
HLA-A*02:01 = target: T1, HLA-A*02:01 (Homo sapiens, UniProt P04439, D140Y/D185E/D98H/E176V/E277Q/G131W/G231S/I119V/I121R/I166T/I218V/L300P/L318F/N151K/N90K/P208A/P217A/Q86G/Q94H/R138H/R169H/T345S); format: binding
T1 construct: T2 cells can usually only express a low level of empty MHC class I molecules on the cell surface; endogenous in cells; host or cells: T2-A24 cells (human lymphoblastoid T2 cells)

[3] = tested on: human colon cancer cell line (SW480); experiment: Detection of SP fraction by Hoechst 33342/PI flow cytometry; format: cell-based; details: verapamil final concentration 75 μM; Hoechst 33342 5.0 μM; FIG. 1
Description: 5% fetal calf serum (FCS (HyClone Laboratories))-supplemented DMEM (Sigma-Aldrich) medium was prepared as a medium and warmed at 37° C. Verapamil (Sigma-Aldrich) was adjusted to 50 mM and diluted to 5 mM using the 5% FCS-supplemented DMEM medium. Hoechst 33342 (Lonza) was adjusted to 250 μg/mL using the 5% FCS-supplemented DMEM medium. DNase I (Qiagen) was adjusted to 1 mg/mL using DDW and sterilized by filtration using a 0.2 μm filter.
A human colon cancer cell line (SW480 (ATCC)) was suspended in 4 mL of the 5% FCS-supplemented DMEM medium, and the number of cells was counted. Furthermore, the 5% FCS-supplemented DMEM medium was added so as to adjust the cell concentration to 10×10^6 cells/mL, thus giving a sample. Using part of the sample, dispensing was carried out; verapamil was not added to a main sample (verapamil(−) sample), and verapamil was added to a secondary sample so as to give a final concentration of 75 μM (verapamil(+) sample). Subsequently, the Hoechst 33342 solution was added to the verapamil(+) sample and the verapamil(−) sample so as to give a Hoechst 33342 final concentration of 5.0 μM. […]
First, cells in the verapamil(−) sample were analyzed, and cells in a cell group (side population (SP)) having low emission intensity compared with a main cell group (main population (MP)) were detected (FIG. 1).

T2-A24 cells = experiment: Cytotoxicity test (LDH release) of CTLs toward peptide-pulsed T2-A24 cells; format: cell-based, human; details: peptide pulse 20 μg/mL; E/T ratio 1, 3, 9; CTL induced by IV9; FIG. 10
Description: (§2) T2-A24 cells, SW480-SP, SW480-MP, and K562 HLA-class I-deficient leukemia cells (obtained from ATCC) were suspended in 10% FBS-supplemented RPMI at a cell concentration of 1×10^6 cells/mL. Washing was carried out three times with 10 mL of 10% FBS-supplemented RPMI.
(§3) T2-A24 cells were pulsed with IV9 peptide and HIV584-594 peptide as a positive control for T2-A24 cell binding, at a concentration of 20 μg/mL at room temperature for 1 hour. As a negative control, a group without peptide pulses was used. With regard to experimental group of T2-A24 cells, three groups were defined: [1] no peptide pulse, [2] HIV584-594 peptide pulse, and [3] IV9 peptide pulse. In addition, K562 was pulsed with IV9 peptide under the same conditions. Both SW480-SP and SW480-MP groups were used without peptide pulses. After the peptide pulse, the cells were washed twice with PBS. The cells of each group were plated on each well at 1×10^5 cells/100 μL.
(§4) Respective numbers of effector cells (CTLs) were plated on each well so that the effector/target ratio (E/T ratio) became 1, 3, and 9. Effector cells were plated as a spontaneous release well. To the maximum release well, 4% of NP-40-added PBS was added to the target cells so that the final concentration became 2%. […] After 10 minutes, fluorescence intensity of each well was measured by Terra Scan. Cytotoxic activity was calculated using the equation below. […]

SW480-MP = experiment: Cytotoxicity test (LDH release) of CTLs toward SW480-MP without peptide pulse; format: cell-based, human; details: CTL induced by IV9, FIG. 10
Description: as §2, §3, §4

Compound: 4 (HLSVLFGHV) [compound 4]
- induction of peptide-specific CTLs from PBMC [1]: able to induce peptide-specific CTLs

Compound: 5 (SVLFGHVECL) [compound 5]
- induction of peptide-specific CTLs from PBMC [1]: able to induce peptide-specific CTLs
- induction of peptide-specific CTLs from PBMC [2]: has CTL inducibility in both HLA-A02 type and HLA-A24 type subjects

Compound: 6 (KILCDRGAKL) [compound 6]
- induction of peptide-specific CTLs from PBMC [1]: able to induce peptide-specific CTLs

Compound: 8 (HFGLSELVAFYV) [compound 8]
- induction of peptide-specific CTLs from PBMC [1]: able to induce peptide-specific CTLs
- induction of peptide-specific CTLs from PBMC [2]: has CTL inducibility in both HLA-A02 type and HLA-A24 type subjects

Compound: 9 (CYSLSGHTAL) [compound 9]
- induction of peptide-specific CTLs from PBMC [1]: able to induce peptide-specific CTLs

Compound: 17 (SILCAKQLV) [compound 17]
- MFI HLA-A24 (HLA-A*24:02): 1.3

Compound: 20 (HVLMHMMLEA) [compound 20]
- MFI HLA-A24 (HLA-A*24:02): 1.3

Compound: 23 (YLLLEPEGII) [compound 23]
- MFI HLA-A24 (HLA-A*24:02): 1.4

Compound: 28 (RIYPPQFHKV) [compound 28]
- MFI HLA-A02 (HLA-A*02:01): 1.4

Compound: 34 (FEVEDENMVL) [compound 34]
- MFI HLA-A24 (HLA-A*24:02): 1.4

Compound: 40 (QYVLKVTSV) [compound 40]
- MFI HLA-A24 (HLA-A*24:02): 1.3

Compound: 41 (LLLNHGAARI) [compound 41]
- MFI HLA-A02 (HLA-A*02:01): 1.3

Compound: COc1ccc(CCN(C)CCCC(C#N)(c2ccc(OC)c(OC)c2)C(C)C)cc1OC (centres unmarked) [verapamil, Verapamil]
- SP cells in flow cytometry [3]: SP cells disappeared

Compound: EADPTGHSY [HLA-A*02:01 Negative control, MAGE-1161-169 peptide as an HLA-A02-negative control, reference compound]
- HLA-A*02:01 Negative control (MFI) (HLA-A*02:01): 1.0

Compound: IYPPQFHKV [SEQ ID No. 3]
- cytotoxic activity of CTLs toward peptide-pulsed T2-A24 cells (T2-A24 cells): high cytotoxic activity
- cytotoxic activity of CTLs toward SW480-MP (SW480-MP): only a similar cytotoxic activity as [1] no peptide pulse group and [2] HIV peptide pulse group

Compound: RGYVYQGL [HLA-A*24:02 Negative control, reference compound]
- HLA-A*24:02 Negative control (MFI) (HLA-A*24:02): 1.0

Compound: RYLRDQQLL [HLA-A*24:02 Positive control, HIV584-592 peptide as an HLA-A24-positive control, reference compound]
- HLA-A*24:02 Positive control (MFI) (HLA-A*24:02): 2.6 and 3.3 and 2.8

— patent US10765729B2, “Tumor antigen peptide” (Sapporo Medical University, priority 2014, dated 2020)
